Experimental data published in ChEMBL document CHEMBL1136070, “Design and synthesis of phosphotyrosine mimetics” (Bioorg Med Chem Lett, 2003).

Columns and labels:
[1] = biological target: T1, Tyrosine-protein phosphatase non-receptor type 2 (Homo sapiens) (UniProt P17706); experiment: Compound was tested for inhibition of T-cell protein tyrosine phosphatase TC-PTP at a concentration of 10 uM in fluorometric assay using DiFMUP
T1 sequence (whole entry): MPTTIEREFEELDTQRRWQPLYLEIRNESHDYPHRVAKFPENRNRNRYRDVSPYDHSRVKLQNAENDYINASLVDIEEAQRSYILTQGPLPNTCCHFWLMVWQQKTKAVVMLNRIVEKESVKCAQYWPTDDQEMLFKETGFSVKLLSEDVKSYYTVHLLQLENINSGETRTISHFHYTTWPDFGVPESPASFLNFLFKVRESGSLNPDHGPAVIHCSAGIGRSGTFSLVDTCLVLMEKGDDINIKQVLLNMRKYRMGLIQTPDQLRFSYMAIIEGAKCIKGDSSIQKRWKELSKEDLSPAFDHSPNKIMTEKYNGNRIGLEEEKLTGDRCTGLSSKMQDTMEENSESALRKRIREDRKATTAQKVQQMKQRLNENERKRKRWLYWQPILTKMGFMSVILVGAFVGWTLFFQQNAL

[2] = biological target: Receptor-type tyrosine-protein phosphatase C (CD45) (Homo sapiens) (UniProt P08575); experiment: Compound was tested for inhibition of CD45 tyrosine phosphatase at a concentration of 10 uM in fluorometric assay using DiFMUP
Chain of Receptor-type tyrosine-protein phosphatase C (CD45) (Homo sapiens) (P08575 whole entry, looked up): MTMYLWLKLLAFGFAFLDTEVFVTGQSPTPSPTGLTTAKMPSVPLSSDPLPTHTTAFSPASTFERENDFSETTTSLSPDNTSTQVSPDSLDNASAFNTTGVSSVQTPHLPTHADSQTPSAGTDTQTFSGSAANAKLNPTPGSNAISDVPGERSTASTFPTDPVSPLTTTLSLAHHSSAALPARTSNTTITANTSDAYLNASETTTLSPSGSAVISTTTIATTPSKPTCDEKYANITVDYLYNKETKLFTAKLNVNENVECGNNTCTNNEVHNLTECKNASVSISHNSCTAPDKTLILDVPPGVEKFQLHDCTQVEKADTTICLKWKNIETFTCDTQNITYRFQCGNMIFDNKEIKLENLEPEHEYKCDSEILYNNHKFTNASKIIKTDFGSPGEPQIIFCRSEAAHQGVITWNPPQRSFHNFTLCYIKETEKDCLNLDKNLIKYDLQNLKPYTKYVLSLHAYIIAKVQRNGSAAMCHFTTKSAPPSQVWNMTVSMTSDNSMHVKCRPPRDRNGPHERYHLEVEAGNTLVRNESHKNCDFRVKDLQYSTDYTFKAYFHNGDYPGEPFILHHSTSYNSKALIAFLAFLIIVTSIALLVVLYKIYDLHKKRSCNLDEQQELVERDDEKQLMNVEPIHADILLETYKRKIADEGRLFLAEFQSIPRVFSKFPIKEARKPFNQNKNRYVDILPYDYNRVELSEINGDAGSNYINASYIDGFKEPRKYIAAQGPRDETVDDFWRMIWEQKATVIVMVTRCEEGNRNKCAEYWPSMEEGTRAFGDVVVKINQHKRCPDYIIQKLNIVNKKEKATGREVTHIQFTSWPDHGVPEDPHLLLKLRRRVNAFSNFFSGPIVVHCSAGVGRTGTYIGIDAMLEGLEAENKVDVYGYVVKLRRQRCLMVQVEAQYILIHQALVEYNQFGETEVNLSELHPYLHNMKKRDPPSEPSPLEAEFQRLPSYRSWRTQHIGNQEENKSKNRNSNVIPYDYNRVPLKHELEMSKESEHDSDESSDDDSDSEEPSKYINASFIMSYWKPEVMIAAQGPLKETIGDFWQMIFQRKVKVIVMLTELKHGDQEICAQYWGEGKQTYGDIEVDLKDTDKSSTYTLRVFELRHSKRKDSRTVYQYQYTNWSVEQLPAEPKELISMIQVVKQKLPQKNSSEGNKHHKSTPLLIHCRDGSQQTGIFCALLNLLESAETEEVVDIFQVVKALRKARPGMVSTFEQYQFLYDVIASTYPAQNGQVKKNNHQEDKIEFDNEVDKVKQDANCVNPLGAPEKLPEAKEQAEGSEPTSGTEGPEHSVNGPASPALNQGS

[3] = biological target: T1, Tyrosine-protein phosphatase non-receptor type 2 (Homo sapiens); experiment: Compound was tested for inhibition of T-cell protein tyrosine phosphatase TC-PTP at a concentration of 100 uM in fluorometric assay using DiFMUP
[4] = biological target: Receptor-type tyrosine-protein phosphatase C (CD45) (Homo sapiens) (UniProt P08575); experiment: Compound was tested for inhibition of CD45 tyrosine phosphatase at a concentration of 100 uM in fluorometric assay using DiFMUP
[5] = biological target: T2, Tyrosine-protein phosphatase non-receptor type 1 (Homo sapiens) (UniProt P18031); experiment: Compound was tested for inhibition of Protein-tyrosine phosphatase 1B at a concentration of 10 uM in fluorometric assay using DiFMUP
T2 sequence (whole entry): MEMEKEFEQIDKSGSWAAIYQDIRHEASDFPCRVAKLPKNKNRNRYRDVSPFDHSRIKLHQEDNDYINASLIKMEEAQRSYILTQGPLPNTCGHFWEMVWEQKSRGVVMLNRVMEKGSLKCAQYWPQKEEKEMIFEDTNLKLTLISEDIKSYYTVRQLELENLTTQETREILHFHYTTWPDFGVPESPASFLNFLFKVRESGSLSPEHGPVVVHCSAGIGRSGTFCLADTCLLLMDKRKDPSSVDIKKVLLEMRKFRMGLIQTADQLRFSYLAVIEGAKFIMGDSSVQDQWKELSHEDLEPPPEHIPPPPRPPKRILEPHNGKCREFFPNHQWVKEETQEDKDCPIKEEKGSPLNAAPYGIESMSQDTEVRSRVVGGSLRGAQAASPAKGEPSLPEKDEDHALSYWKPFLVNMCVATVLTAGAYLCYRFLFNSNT

[6] = biological target: Receptor-type tyrosine-protein phosphatase F (Homo sapiens) (UniProt P10586); experiment: Compound was tested for inhibition of Lar tyrosine phosphatase at a concentration of 10 uM in fluorometric assay using DiFMUP
Chain of Receptor-type tyrosine-protein phosphatase F (Homo sapiens) (P10586 whole entry): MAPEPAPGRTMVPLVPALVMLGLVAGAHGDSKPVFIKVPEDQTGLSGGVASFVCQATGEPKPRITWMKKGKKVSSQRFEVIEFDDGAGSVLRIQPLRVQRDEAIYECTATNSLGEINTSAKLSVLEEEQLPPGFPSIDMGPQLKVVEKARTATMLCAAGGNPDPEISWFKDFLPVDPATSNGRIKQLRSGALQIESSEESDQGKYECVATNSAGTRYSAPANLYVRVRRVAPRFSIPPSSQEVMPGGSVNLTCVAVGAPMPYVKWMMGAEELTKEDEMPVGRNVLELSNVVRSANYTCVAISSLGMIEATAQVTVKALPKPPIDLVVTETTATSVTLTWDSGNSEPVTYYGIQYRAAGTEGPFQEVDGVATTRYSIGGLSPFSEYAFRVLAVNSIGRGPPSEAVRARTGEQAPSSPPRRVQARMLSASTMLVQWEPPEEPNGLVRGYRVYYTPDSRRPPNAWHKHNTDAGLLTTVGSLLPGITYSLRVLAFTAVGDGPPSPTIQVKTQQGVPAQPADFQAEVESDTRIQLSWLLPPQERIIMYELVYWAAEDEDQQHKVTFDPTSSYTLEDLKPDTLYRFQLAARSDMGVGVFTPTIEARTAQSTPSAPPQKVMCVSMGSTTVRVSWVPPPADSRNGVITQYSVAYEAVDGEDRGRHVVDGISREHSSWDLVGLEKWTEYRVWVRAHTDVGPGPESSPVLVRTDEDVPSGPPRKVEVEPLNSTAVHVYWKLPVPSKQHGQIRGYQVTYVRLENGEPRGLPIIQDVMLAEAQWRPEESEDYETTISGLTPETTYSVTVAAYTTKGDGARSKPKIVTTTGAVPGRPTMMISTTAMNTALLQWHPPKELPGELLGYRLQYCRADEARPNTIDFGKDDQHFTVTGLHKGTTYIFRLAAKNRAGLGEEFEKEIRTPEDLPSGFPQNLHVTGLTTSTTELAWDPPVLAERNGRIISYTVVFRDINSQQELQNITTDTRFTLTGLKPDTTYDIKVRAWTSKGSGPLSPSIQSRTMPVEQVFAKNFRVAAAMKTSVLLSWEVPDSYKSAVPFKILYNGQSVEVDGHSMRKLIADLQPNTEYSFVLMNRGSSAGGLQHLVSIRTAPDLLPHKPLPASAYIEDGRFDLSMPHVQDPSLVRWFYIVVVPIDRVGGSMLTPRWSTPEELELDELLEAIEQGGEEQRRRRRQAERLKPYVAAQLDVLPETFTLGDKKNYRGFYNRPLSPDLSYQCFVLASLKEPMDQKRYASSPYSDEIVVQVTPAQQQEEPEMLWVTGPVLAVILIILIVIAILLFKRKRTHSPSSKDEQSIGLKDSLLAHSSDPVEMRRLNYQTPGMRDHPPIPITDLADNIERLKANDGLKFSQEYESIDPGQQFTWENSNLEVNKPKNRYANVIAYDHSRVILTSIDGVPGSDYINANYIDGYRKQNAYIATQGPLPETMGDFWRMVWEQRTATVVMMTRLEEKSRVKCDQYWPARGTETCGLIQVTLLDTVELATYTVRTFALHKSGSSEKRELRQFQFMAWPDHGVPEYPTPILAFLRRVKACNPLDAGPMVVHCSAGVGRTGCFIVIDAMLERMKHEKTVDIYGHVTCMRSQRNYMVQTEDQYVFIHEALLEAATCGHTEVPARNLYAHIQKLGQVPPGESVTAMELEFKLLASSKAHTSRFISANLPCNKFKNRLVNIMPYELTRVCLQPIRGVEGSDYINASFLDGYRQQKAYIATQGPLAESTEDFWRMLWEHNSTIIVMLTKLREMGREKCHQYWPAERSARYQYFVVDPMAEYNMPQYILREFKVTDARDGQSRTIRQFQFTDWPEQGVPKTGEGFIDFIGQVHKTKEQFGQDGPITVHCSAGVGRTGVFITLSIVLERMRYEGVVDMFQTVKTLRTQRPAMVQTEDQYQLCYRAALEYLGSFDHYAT

[7] = biological target: T2, Tyrosine-protein phosphatase non-receptor type 1 (Homo sapiens); experiment: Compound was tested for inhibition of Protein-tyrosine phosphatase 1B at a concentration of 100 uM in fluorometric assay using DiFMUP
[8] = biological target: Receptor-type tyrosine-protein phosphatase F (Homo sapiens) (UniProt P10586); experiment: Compound was tested for inhibition of Lar tyrosine phosphatase at a concentration of 100 uM in fluorometric assay using DiFMUP

Row | inhibition [1] [%] | inhibition [2] [%] | inhibition [3] [%] | inhibition [4] [%] | inhibition [5] [%] | inhibition [6] [%] | inhibition [7] [%] | inhibition [8] [%] | SMILES
1 | 20 | 15 | 90 | 55 | 55 | 10 | 95 | 50 | CC(Cn1c(=O)n2n(c1=O)C(C(=O)NC(Cc1ccc3sccc(=O)c3c1)C(=O)O)C=CC2CCCC(=O)O)c1ccccc1 (configuration not stated)
2 | 85 | 20 | 100 | 70 | 75 | 50 | 100 | 70 | O=C(O)CCCC1C=CC(C(=O)NC(Cc2ccc3sccc(=O)c3c2)C(=O)O)n2c(=O)n(-c3ccc(Oc4ccccc4)cc3)c(=O)n21 (configuration not stated)
3 | 85 | 5 | 100 | 50 | 0 | 25 | 95 | 50 | O=C(O)CCCC1C=CC(C(=O)NC(Cc2ccc3sccc(=O)c3c2)C(=O)O)n2c(=O)n(Cc3cc(F)ccc3F)c(=O)n21 (configuration not stated)
4 | 10 | 20 | 20 | 70 | 40 | 0 | 70 | 10 | O=C(O)CCCC1C=CC(C(=O)NC(Cc2ccc3sccc(=O)c3c2)C(=O)O)n2c(=O)n(CC3CCCCC3)c(=O)n21 (configuration not stated)
